For one test, the system named is Rat brain slices. Nature of the test: Rat brain slice ischemia EPSP system. Particulars: 50 μM; untreated slices recovered only about 40%. In kind it is cell-based. The procedure: A widely used assay to determine the therapeutic potential of molecules in brain ischemia (stroke) consists of evaluating their ability to prevent irreversible damage induced by an anoxic episode in brain slices maintained under physiological conditions. Rat brain slices were maintained at 35° C. in an interface chamber in an artificial cerebrospinal fluid containing: 124 mM NaCl, 3 mM KCl, 1.25 mM KH2PO4, 3 mM CaCl, 1 mM MgCl2, 26 mM NaHCO3, 10 mM D-glucose, and 2 mM L-ascorbate, continuously gassed with a mixture of O2:CO2 (95:5). The atmosphere of the chamber was also continuously gased with the mixture of O2:CO2 (95:5), except during the anoxic episode when it was replaced by N2. Axons were electrically stimulated and the evoked excitatory post-synaptic potentials (EPSPs) were recorded using microelectrodes.
The extent of permanent damage can be quantified by measuring both the amplitude (in mV) and the initial slope (in mV/msec) of the EPSP.
After 5 minutes of baseline recording, O2 was replaced by N2 for an average of 5 minutes. O2 was then reintroduced and recording was continued for another 50 minutes. […] In contrast, recovery in untreated brain slices was only about 40% of pre-ischemia levels.
As an additional assessment of efficacy, the percentage of viable slices following repeated ischemic episodes was evaluated. […]

The conditions of test [1]: cited from earlier work.
Test [2] is described as follows: SOD activity, cytochrome c as acceptor, IC50 (Example 2). In kind it is biochemical. The conditions noted are these: read-out: SOD activity IC50 (half-maximally active concentration). As for the experimental part:
Superoxide dismutase (SOD) activity was assayed by following the inhibition of the reduction of an electron acceptor molecule in the presence of the free-radical generating system xanthine/xanthine oxidase (McCord et al. (1973) Superoxide and Superoxide Dismutase in “Oxidases and Related Redox Systems, vol. I, King et al. eds., University Park press, Baltimore, pp. 51-76). The assay mixture consisted of 50 mM sodium phosphate, pH 7.8, 120 μM xanthine, 0.2 units/ml xanthine oxidase, with acceptor molecule and salen manganese compound, as indicated. Assays were conducted at 27±0.2° C. using a water-jacketed cell holder in a Beckman DU7400 spectrophotometer. In most cases, oxidized cytochrome c, at 0.13 mg/ml, was employed as acceptor and its reduction was monitored spectrophotometrically at 550 nm. In some experiments, nitroblue tetrazolium (NBT), at 80 μM, was substituted for cytochrome c as the acceptor. NBT reduction was also monitored at 550 nm. An estimated extinction coefficient for NBT reduction, 20,800 M^−1cm^−1, determined empirically by exhaustive reduction of NBT in the reaction mixture described above, was employed where indicated. This value agreed well with reported extinction coefficients for reduced tetrazolium dyes. […] Conversion of xanthine to urate was calculated using ε290's of […] for urate and 4050 M^−1cm^−1 for xanthine. […]

Regarding `[Cl][Mn]1[O]c2ccccc2C=NCCN=Cc2ccccc2[O]1` [Compound C7], the “recovery of EPSP amplitude and slopes after ischemia/reoxygenation” value in the test on Rat brain slices was “recovered to pre-ischemia levels”. Also, the “SOD activity previously found” value in test [1] is reported as “about 769 units/mM”. Besides, in test [2], the IC50 is 3.2 µM.

The values are drawn from patent US6900198B2, “Synthetic catalytic free radical scavengers useful as antioxidants for prevention and therapy of disease” (Eukarion, Inc., priority 1995, dated 2005).
